Measurements reported in patent US20100120736A1, “Mineralocorticoid Receptor Antagonists” (N.V. ORGANON, priority 2007, published 2010).

Columns and labels:
[1] = biological target: T1, mineralocorticoid receptor (MR) (Rattus norvegicus, UniProt P22199); assay: In vitro binding to mineralocorticoid receptor (MR), displacement of tritiated aldosterone; conditions: read-out: Mineralocorticoid receptor Antagonist activity IC50
T1 sequence (P22199 1-981): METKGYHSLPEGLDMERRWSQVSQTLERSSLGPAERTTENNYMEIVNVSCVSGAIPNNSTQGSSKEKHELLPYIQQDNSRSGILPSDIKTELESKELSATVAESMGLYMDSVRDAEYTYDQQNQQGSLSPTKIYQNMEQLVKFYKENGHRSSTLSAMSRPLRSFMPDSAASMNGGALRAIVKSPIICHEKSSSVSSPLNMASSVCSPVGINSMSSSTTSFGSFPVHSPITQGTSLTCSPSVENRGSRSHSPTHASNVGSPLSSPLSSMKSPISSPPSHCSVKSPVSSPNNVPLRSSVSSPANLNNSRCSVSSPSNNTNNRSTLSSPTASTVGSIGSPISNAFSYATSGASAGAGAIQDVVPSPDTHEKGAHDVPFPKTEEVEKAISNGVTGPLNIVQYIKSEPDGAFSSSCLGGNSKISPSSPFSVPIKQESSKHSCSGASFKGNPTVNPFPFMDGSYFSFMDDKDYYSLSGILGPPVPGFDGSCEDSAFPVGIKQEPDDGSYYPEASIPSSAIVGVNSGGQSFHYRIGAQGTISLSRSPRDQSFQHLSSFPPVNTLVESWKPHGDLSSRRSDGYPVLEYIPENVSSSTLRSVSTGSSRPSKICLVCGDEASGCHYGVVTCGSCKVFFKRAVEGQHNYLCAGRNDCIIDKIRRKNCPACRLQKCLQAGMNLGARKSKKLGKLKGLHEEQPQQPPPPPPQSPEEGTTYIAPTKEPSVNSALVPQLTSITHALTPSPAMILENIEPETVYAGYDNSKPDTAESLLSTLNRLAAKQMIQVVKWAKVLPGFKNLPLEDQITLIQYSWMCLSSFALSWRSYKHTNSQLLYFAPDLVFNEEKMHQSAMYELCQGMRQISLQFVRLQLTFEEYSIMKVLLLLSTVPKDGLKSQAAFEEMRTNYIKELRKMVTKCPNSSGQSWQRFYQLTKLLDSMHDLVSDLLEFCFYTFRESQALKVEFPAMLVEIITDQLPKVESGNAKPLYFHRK
Source text: In vitro binding to the mineralocorticoid receptor (MR) was essentially carried out as reported in the literature (C. E. Gomez-Sanchez and E. P. Gomez-Sanchez, Endocrinology 113 (1983) 1004-1009, Z. S. Krozowski and J. W. Funder, Proc. Natl. Acad. Sci. USA 80 (1983) 6056-; J. H. M. H. Reul and E. R. de Kloet, Endocrinology 117 (1985) 2505-2511; K. E. Sheppard and J. W. Funder, J. Steroid Biochem. 28 (1987) 737-742).
Male Wistar rats Were adrenalectomised and perfused with cold saline after 3 days of survival. Kidneys and hippocampi, respectively, were rapidly dissected and homogenized. A cylosolic fraction was prepared by centrifugation.
Unlabeled RU 28362 (10 nM), a specific GR binder, was added for saturating glucocorticoid receptors. Compounds to be tested, dissolved in DMF and diluted with water to obtain the required concentration, were added in an increasing concentration range (1.0-1000 nM) and allowed to incubate for 3 h. Incubations were terminated by adding dextran-coated charcoal suspension, followed by centrifugation. The supernatant was assayed with a scintillation counter for unbound labelled ligand.

Row | IC50 [1] [nM] | melting point [°C] | SMILES
1 | 0.44 |  | C=C(C)[C@H]1CC[C@H]2[C@@H]3CCC4=CC(=O)CC[C@]4(C)[C@H]3[C@@H](O)C[C@]12C [synthetic example 1, (11β)-11-hydroxy-20-methylpregna-4,20-dien-3-one]
2 |  | 153 to 155 | C=C(C)[C@H]1CC[C@H]2[C@@H]3C=CC4=CC(=O)CC[C@]4(C)[C@H]3[C@@H](O)C[C@]12C

More lines, now with the values behind:

Row | SMILES | IC50 [1] [nM] | melting point [°C]
3 | C[C@]12C[C@H](O)[C@H]3[C@@H](CCC4=CC(=O)CC[C@@]43C)[C@@H]1CC[C@@H]2C(=O)CO [Corticosterone, reference compound] | 5 | 
4 | CC(=O)S[C@@H]1CC2=CC(=O)CC[C@]2(C)[C@H]2CC[C@@]3(C)[C@@H](CC[C@@]34CCC(=O)O4)[C@H]12 [Spironolactone, reference compound] | 6 | 
5 | CC[C@H]1CC[C@H]2[C@@H]3CCC4=CC(=O)C=C[C@]4(C)[C@H]3[C@@H](O)C[C@]12C [synthetic example 14, (11β)-11-hydroxypregna-1,4-dien-3-one] | 0.12 | 
